Data reported in patent publication US20020035139A1, “COX-2 inhibitors and the prevention of the side effects of radiation therapy” (priority 2000, published 2002).

What was measured:
[1] = cited from earlier work
PC-3 cells = settings: cited from earlier work
[2] = clinical observations during pelvic radiation for prostate carcinoma; format: in vivo, patients
From the text: The present invention originated with observations made during pelvic radiation for prostate carcinoma.

[3] = PC-3 cells irradiated in the presence or absence of the inhibitor

NCCCNCCSP(=O)(O)O [Ethiol]
dry mouth following radiation treatment ([1]; head and neck cancer): decrease the dry mouth | acute mucosal effects ([1]; radiotherapy): does not limit acute mucosal effects

CS(=O)(=O)Nc1ccc([N+](=O)[O-])cc1OC1CCCCC1 [NS-398]
prostaglandin (PGE(2)) level in irradiated cells (PC-3 cells; PC-3 cells irradiated in the presence of the inhibitor): reduced PGE(2) levels | apoptosis (PC-3 cells; [3]): no differences | cell cycle distribution (PC-3 cells; [3]): no differences

CS(=O)(=O)c1ccc(C2=C(c3ccccc3)C(=O)OC2)cc1 [Vioxx, rofecoxib]
fatigue associated with radiotherapy [2]: decrease | acute mucosal effects of radiation ([2]; urinary and gastrointestinal tracts, during radiotherapy): decrease the acute mucosal effects of radiation
